# Assay results as given in publication PMC8003627, “Synthesis and Biological Evaluation of 2,3,4-Triaryl-1,2,4-oxadiazol-5-ones as p38 MAPK Inhibitors” (Molecules, 2021).
# Molecular target: p38α MAP kinase (Homo sapiens, UniProt Q16539)
# Experiment: p38α MAP kinase inhibition assay (non radioactive immunosorbent enzyme assay, ATF-2 phosphorylation; Ultra Glo Promega kit)
# Format: biochemical
# Settings: mean of four separated experiments; compounds assayed at 10^−4 to 10^−8 M
# Chain of p38α MAP kinase (Q16539 whole entry): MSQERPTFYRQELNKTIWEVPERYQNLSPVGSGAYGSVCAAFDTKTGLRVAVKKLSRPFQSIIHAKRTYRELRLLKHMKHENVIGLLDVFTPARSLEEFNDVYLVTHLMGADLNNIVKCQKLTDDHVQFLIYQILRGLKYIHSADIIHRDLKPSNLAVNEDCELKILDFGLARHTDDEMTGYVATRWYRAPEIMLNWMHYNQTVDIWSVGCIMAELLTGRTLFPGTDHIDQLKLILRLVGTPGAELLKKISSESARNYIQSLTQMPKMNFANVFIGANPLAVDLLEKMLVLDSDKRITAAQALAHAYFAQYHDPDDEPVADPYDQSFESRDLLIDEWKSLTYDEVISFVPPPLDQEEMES
row,SMILES,IC50
1,"O=C1ON(Cc2ccccc2)C(c2ccncc2)N1c1ccc([N+](=O)[O-])cc1 (centres unmarked) [Compound 3f, 2-Benzyl-4-(4-nitrophenyl)-3-(pyridin-4-yl)-1,2,4-oxadiazolidin-5-one]",0.15 µM
2,"O=C1ON(Cc2ccccc2)C(c2ccncc2)N1c1ccc(F)cc1 (centres unmarked) [Compound 3e, 2-Benzyl-4-(4-fluorophenyl)-3-(pyridin-4-yl)-1,2,4-oxadiazolidin-5-one]",0.08 µM
3,"O=C1ON(c2ccccc2)C(c2ccncc2)N1c1ccc(C(F)(F)F)cc1 (centres unmarked) [Compound 3c, 2-Phenyl-4-(4-trifluoromethyl)-3-(pyridin-4-yl)-1,2,4-oxadiazolidin-5-one]",2 µM
4,"O=C1ON(Cc2ccccc2)C(c2ccccc2)N1c1ccc(F)cc1 (centres unmarked) [Compound 3g, 2-Benzyl-4-(4-fluorophenyl)-3-phenyl-1,2,4-oxadiazolidin-5-one]",15.1 µM
5,"O=C1ON(c2ccccc2)C(c2ccncc2)N1c1ccc(Cl)cc1 (centres unmarked) [Compound 3d, 2-Phenyl-4-(4-chlorophenyl)-3-(pyridin-4-yl)-1,2,4-oxadiazolidin-5-one]",1.5 µM

# Next, values leading:
row,IC50,SMILES
1,60.5 µM,"O=C1ON(Cc2ccccc2)C(c2ccccc2)N1c1ccc([N+](=O)[O-])cc1 (centres unmarked) [Compound 3h, 2-Benzyl-4-(4-nitrophenyl)-3-phenyl-1,2,4-oxadiazolidin-5-one]"
2,22.8 µM,"CC1N(c2ccccc2)OC(=O)N1c1ccc(F)cc1 (centres unmarked) [Compound 3l, 2-Phenyl-4-(4-fluorophenyl)-3-methyl-1,2,4-oxadiazolidin-5-one]"
3,18.5 µM,"CC1N(Cc2ccccc2)OC(=O)N1c1ccc(F)cc1 (centres unmarked) [Compound 3i, 2-Benzyl-4-(4-fluorophenyl)-3-methyl-1,2,4-oxadiazolidin-5-one]"
